The text below walks through data of patent US7666901B2, “Analogs of 17-hydroxywortmannin as PI3K inhibitors” (Wyeth, priority 2004, dated 2010).

By IC50 is commonly meant the concentration that inhibits the measured activity by half. Read a low IC50 as greater potency in that assay.

Experiment [1] has as its system MDA435 (human breast adenocarcinoma). Briefly: Cell proliferation (MTS) assay, MDA435. The format is cell-based. To be noted: three days treatment; for IC50: Homo sapiens, MDA435, 72 h. In outline: (§1)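 Cells plated at about 3000 per well in RPMI-1640/10% FBS were dosed with compound one day later. Viability was read by MTS conversion (absorbance 490 nm, 1–2 h) three days after treatment began. Effect is expressed as percent of vehicle-treated growth on the same plate.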

The subject of experiment [2] is DU145 (human prostate carcinoma/lymphocytic leukemia). Briefly: Cell proliferation (MTS) assay, DU145. To be noted: three days treatment; for IC50: Homo sapiens, DU-145, 72 h. In kind it is cell-based. In outline:
as §1

Another experiment concerns the target T1, Human TOR (Homo sapiens, UniProt P42345).
T1 construct: FLAG
Briefly: Human TOR (mTOR) kinase assay, DELFIA format. The format is biochemical. To be noted: for IC50: Table 2. In outline: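 Purified FLAG-TOR (800 ng/mL) phosphorylates His6-S6K ([…]) with […] ATP in Hepes pH 7.4 buffer containing MnCl2, 2 h at room temperature. Phospho-Thr389 S6K detected by DELFIA using Europium-labelled anti-P(T389)-p70S6K antibody; enzyme inhibition calculated from signal.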

The test system of experiment [3] is LNCaP (human prostate carcinoma). Briefly: Cell proliferation (MTS) assay, LNCaP. The format is cell-based. To be noted: three days treatment; for IC50: Homo sapiens, LNCaP, 72 h. The essentials:
as §1

Experiment [4] relates to phosphor-AKT (S473) in Rat1 cells. Kind of experiment: Rat1-IGF1 assay (IGF-1 induced phospho-AKT immunoblot). The format is cell-based, rat. To be noted: for IC50: Rattus norvegicus. In outline: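 After 24 h serum starvation, Rat1 cells got vehicle or varying 17-HWT concentrations for 2 hours, then IGF-1 (100 ng/mL) for 30 minutes. Lysates immunoblotted for phospho-AKT (S473) and total AKT.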

Another experiment has as its system T2, PI3K.
T2 construct: PI3K FP IC50
Kind of experiment: Fluorescence polarization assay for PI3K. To be noted: for IC50: Table 2. In kind it is biochemical. In outline:
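PI3K was preincubated with compound at 1% DMSO final, then reacted with PIP2/ATP substrate for 30-60 min. The reaction was stopped with a detector mix giving 10 nM red probe and 70 nM GST-GRP. Fluorescence polarization (mP, Tamra filters) was read 30-90 min later and IC50 determined.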
On the technique in general: In fluorescence polarisation assays a small probe gives low polarisation when free and higher when bound to something large.

Experiment [5] has as its system MDA468 (human breast cancer cell). Kind of experiment: Cell proliferation (MTS) assay, MDA468. In kind it is cell-based. To be noted: three days treatment; for IC50: Homo sapiens, 72 h. In outline:
as §1

In brackets after ≈: the same amount, converted by molar mass.

As for `COCC1OC(=O)C(=CN2CCN(CCN3CCOCC3)CC2)C2=C(O)C(=O)C3=C(C(OC(C)=O)CC4(C)C(O)CCC34)C21C` (stereo not drawn) [Compound 33, Acetic acid 6,17-dihydroxy-1-methoxymethyl-10,13-dimethyl-4-[4-(2-morpholin-4-yl-ethyl)-piperazin-1-ylmethylene]-3,7-dioxo-1,3,4,7,10,11,12,13,14,15,16,17-dodecahydro-2-oxa-cyclopenta[a]phenanthren-11-yl ester], the half-inhibitory concentration (IC50) in experiment [1] (Table 2) was 18 µg/mL (≈ 28.6 µM); in experiment [2] (Table 2), 20 µg/mL (≈ 31.8 µM); at Human TOR, 619 nM; in experiment [3] (Table 2), 0.5 µg/mL (≈ 0.794 µM); in experiment [4] (Table 2), 0.1 µg/mL (≈ 0.159 µM); in the experiment on PI3K, 78 nM. In addition, in experiment [5] (Table 2), half-maximal inhibition (IC50) required 4.3 µg/mL (≈ 6.83 µM).

As for `COCC1OC(=O)C(=CN2CCN(C3CCN(C)CC3)CC2)C2=C(O)C(=O)C3=C(C(OC(C)=O)CC4(C)C(O)CCC34)C21C` (stereo not drawn) [Compound 34, Acetic acid 6,17-dihydroxy-1-methoxymethyl-10,13-dimethyl-4-[4-(1-methyl-piperidin-4-yl)-piperazin-1-ylmethylene]-3,7-dioxo-1,3,4,7,10,11,12,13,14,15,16,17-dodecahydro-2-oxa-cyclopenta[a]phenanthren-11-yl ester], the half-maximal inhibitory concentration (IC50) in experiment [1] (Table 2) was 22 µg/mL (≈ 35.8 µM); in experiment [2] (Table 2), 25 µg/mL (≈ 40.7 µM); at Human TOR, 961 nM; in experiment [3] (Table 2), 0.48 µg/mL (≈ 0.782 µM); in experiment [4] (Table 2), 0.1 µg/mL (≈ 0.163 µM); in the experiment with PI3K, 91 nM. Moreover, half-maximal inhibition in experiment [5] (Table 2) (IC50) required 6 µg/mL (≈ 9.78 µM).

As for `COCC1OC(=O)C(=CN(C)CC(=O)OC(C)(C)C)C2=C(O)C(=O)C3=C(C(OC(C)=O)CC4(C)C(O)CCC34)C21C` (stereo not drawn) [Compound 35, [(11-Acetoxy-6,17-dihydroxy-1-methoxymethyl-10,13-dimethyl-3,7-dioxo-1,7,10,11,12,13,14,15,16,17-decahydro-2-oxa-cyclopenta[a]phenanthren-4-ylidenemethyl)-methyl-amino]-acetic acid tert-butyl ester], the IC50 in experiment [1] (Table 2) was 5.5 µg/mL (≈ 9.55 µM); in experiment [2] (Table 2), 3 µg/mL (≈ 5.21 µM); against Human TOR, 13900 nM; in experiment [3] (Table 2), 0.1 µg/mL (≈ 0.174 µM); in experiment [4] (Table 2) it was 0.1 µg/mL (≈ 0.174 µM); with PI3K, 1580 nM. The molecule also yielded a half-inhibitory concentration (IC50) in experiment [5] (Table 2) of 1.4 µg/mL (≈ 2.43 µM).

`COCC1OC(=O)C(=CN(C)CC(O)CO)C2=C(O)C(=O)C3=C(C(OC(C)=O)CC4(C)C(O)CCC34)C21C` (stereo not drawn) [Compound 36, Acetic acid 4-{[(2,3-dihydroxy-propyl)-methyl-amino]-methylene}-6,17-dihydroxy-1-methoxymethyl-10,13-dimethyl-3,7-dioxo-1,3,4,7,10,11,12,13,14,15,16,17-dodecahydro-2-oxa-cyclopenta[a]phenanthren-11-yl ester]: the IC50 is 5 µg/mL (≈ 9.34 µM) in experiment [1] (Table 2); 12 µg/mL (≈ 22.4 µM) in experiment [2] (Table 2); 2990 nM at Human TOR; 0.09 µg/mL (≈ 0.168 µM) in experiment [3] (Table 2); 0.1 µg/mL (≈ 0.187 µM) in experiment [4] (Table 2); 199 nM in the experiment with PI3K. The molecule also came in with a concentration for half-maximal inhibition (IC50) in experiment [5] (Table 2) of 2.3 µg/mL (≈ 4.29 µM).

As to `COCC1OC(=O)C(=CN(C)CCCC(=O)O)C2=C(O)C(=O)C3=C(C(OC(C)=O)CC4(C)C(O)CCC34)C21C` (stereo not drawn) [Compound 37, 4-[(11-Acetoxy-6,17-dihydroxy-1-methoxymethyl-10,13-dimethyl-3,7-dioxo-1,7,10,11,12,13,14,15,16,17-decahydro-2-oxa-cyclopenta[a]phenanthren-4-ylidenemethyl)-methyl-amino]-butyric acid], the IC50 in experiment [1] (Table 2) was 12 µg/mL (≈ 21.9 µM); in experiment [2] (Table 2), 21 µg/mL (≈ 38.3 µM); against Human TOR, 12600 nM; in experiment [3] (Table 2), 0.2 µg/mL (≈ 0.365 µM); in experiment [4] (Table 2) it was 0.1 µg/mL (≈ 0.183 µM); in the experiment with PI3K, 193 nM. Also, in experiment [5] (Table 2), half-maximal inhibition (IC50) was put at 4 µg/mL (≈ 7.3 µM).

On to `COCC1OC(=O)C(=CN2CCC2C(=O)O)C2=C(O)C(=O)C3=C(C(OC(C)=O)CC4(C)C(O)CCC34)C21C` (stereo not drawn) [Compound 38, 1-(11-Acetoxy-6,17-dihydroxy-1-methoxymethyl-10,13-dimethyl-3,7-dioxo-1,7,10,11,12,13,14,15,16,17-decahydro-2-oxa-cyclopenta[a]phenanthren-4-ylidenemethyl)-azetidine-2-carboxylic acid], for which the IC50 in experiment [1] (Table 2) is 4 µg/mL (≈ 7.53 µM); in experiment [2] (Table 2), 2.4 µg/mL (≈ 4.52 µM); on Human TOR, 9590 nM; in experiment [3] (Table 2) it was 0.06 µg/mL (≈ 0.113 µM); in experiment [4] (Table 2), 0.1 µg/mL (≈ 0.188 µM); in the experiment on PI3K it was 63 nM. In experiment [5] (Table 2), this molecule had an IC50 of 1.3 µg/mL (≈ 2.45 µM).

As to `COCC1OC(=O)C(=CN2CCCC2C(=O)OC)C2=C(O)C(=O)C3=C(C(OC(C)=O)CC4(C)C(O)CCC34)C21C` (stereo not drawn) [Compound 39, 1-(11-Acetoxy-6,17-dihydroxy-1-methoxymethyl-10,13-dimethyl-3,7-dioxo-1,7,10,11,12,13,14,15,16,17-decahydro-2-oxa-cyclopenta[a]phenanthren-4-ylidenemethyl)-pyrrolidine-2-carboxylic acid methyl ester], the IC50 in experiment [1] (Table 2) is 4 µg/mL (≈ 7.15 µM); in experiment [2] (Table 2), 2.4 µg/mL (≈ 4.29 µM); at Human TOR, 12300 nM; in experiment [3] (Table 2), 0.043 µg/mL (≈ 0.0768 µM); in experiment [4] (Table 2), 0.1 µg/mL (≈ 0.179 µM); in the experiment with PI3K, 770 nM. The IC50 in experiment [5] (Table 2) was 1.2 µg/mL (≈ 2.14 µM).

`COCC1OC(=O)C(=CN2CCCC2C(=O)OC)C2=C(O)C(=O)C3=C(C(OC(C)=O)CC4(C)C(O)CCC34)C21C` (stereo not drawn) [Compound 40, 1-(11-Acetoxy-6,17-dihydroxy-1-methoxymethyl-10,13-dimethyl-3,7-dioxo-1,7,10,11,12,13,14,15,16,17-decahydro-2-oxa-cyclopenta[a]phenanthren-4-ylidenemethyl)-pyrrolidine-2-carboxylic acid methyl ester]: the “MDA435 IC50” value in experiment [1] (Table 2) was 5.5 µg/mL. In experiment [2] (Table 2), the “DU145 IC50” value was 1.85 µg/mL. Moreover, the figures for the IC50 against Human TOR and with PI3K were above 17900 nM and 444 nM, respectively. Besides, the “LNCaP IC50” value in experiment [3] (Table 2) was found to be 0.085 µg/mL. For the same molecule, in experiment [4] (Table 2), the “Rat1-IGF1 IC50” value was >0.1(hint) μg/ml. Also, the “MDA468 IC50” value in experiment [5] (Table 2) came out at 0.75 µg/mL.

Turning to “(1E,4S,4aR,5R,6aS,7S)-7,11-dihydroxy-4-(methoxymethyl)-4a,6a-dimethyl-1-{[methyl(1-methylpyrrolidin-3-yl)amino]methylene}-2,10-dioxo-1,2,4,4a,5,6,6a,7,8,9,9a,10-dodecahydroindeno[4,5-h]isochromen-5-yl acetate [Compound 6]”, the “MDA435 IC50” value in experiment [1] (Table 1) was above 15 µg/mL. Moreover, the “DU145 IC50” value in experiment [2] (Table 1) turned out to be 13 µg/mL. For the same molecule, on Human TOR (Table 1), the “TOR IC50” value was determined as 0.66 µg/mL. For the same molecule, the “LNCaP IC50” value in experiment [3] (Table 1) was found to be 0.55 µg/mL. In addition, the “Rat1-IGF1 IC50” value in experiment [4] (Table 1) is 0.02 µg/mL. Also, in the experiment with PI3K (Table 1), the “PI3K FP IC50” value amounted to 0.07 µg/mL. Moreover, the “MDA468 IC50” value in experiment [5] (Table 1) was determined as 2.01 µg/mL.
